Results taken from US20120082727A1, “USE OF MAGNESIUM STEARATE IN DRY POWDER FORMULATIONS FOR INHALATION” (CHIESI FARMACEUTICI S.p.A., priority 2010, published 2012).

Assay: Chemical stability of dry powder formulations on storage in glass vials, residual test compound and hydrolysis product by UPLC
Assay type: physicochemical
Settings: 25 °C, 60% rel. humidity; for CHF 5551.02 values (%): hydrolysis degradation product
Experimental: Dry powder formulations were prepared comprising as a carrier either particles of alpha-lactose monohydrate 212-355 microns alone (coarse) or coated with magnesium stearate (coated). Said coated particles were obtained by mixing alpha-lactose monohydrate with 1% magnesium stearate in a Turbula mixer for 4 hours.
Samples of the manufactured mixtures were filled in glass vials and stored under stressing conditions ([…]) in comparison to a sample stored under long tem conditions (25 ° C., 60% relative humidity).
The percentage amount of residual test compound and of the degradation product due to hydrolysis, (R)-1-hydroxy-(2-oxo-2-thiophen-2-yl-ethyl)-1-azonia-bicyclo[2.2.2]octane; chloride quoted as CHF 5551.02, was determined in the two formulations by ultra performance liquid chromatography (UPLC) in comparison to the active ingredient without the carrier (API). The variation of CHF 5551.2 content with the time is also plotted in FIG. 3.

## O=C(OC(c1cccc(F)c1)c1cccc(F)c1)O[C@H]1C[N+]2(CC(=O)c3cccs3)CCC1CC2.[Cl-] [Test compound, (R)-3-[bis-(3-fluoro-phenyl)-methoxycarbonyloxy]-1-(2-oxo-2-thiophen-2-yl-ethyl)-1-azonia-bicyclo[2.2.2]octane; chloride]
0 days
  Test compound values (%): 100.0%
  CHF 5551.02 values (%): 0.08%
2 days
  Test compound values (%): 99.9%
  CHF 5551.02 values (%): 0.20%
4 days
  Test compound values (%): 99.9%
  CHF 5551.02 values (%): 0.29%
7 days
  Test compound values (%): 99.9%
  CHF 5551.02 values (%): 0.24%
9 days
  Test compound values (%): 99.9%
  CHF 5551.02 values (%): 0.28%
11 days
  Test compound values (%): 99.9%
  CHF 5551.02 values (%): 0.29%
14 days
  Test compound values (%): 100.0%
  CHF 5551.02 values (%): 0.23%
